According to patent US20240016895A1, “HEPCIDIN MIMETICS FOR TREATMENT OF SICKLE CELL DISEASE” (Protagonist Therapeutics, Inc., priority 2022, published 2024):
“Also recorded” adds a separate entry of the source. Where a SMILES comes first, the peptide text is derived from it.

How the values were obtained:
Type in all cases: in vivo
Townes SCD mice [1] = assay: Complete blood count (hematological parameters) in Townes SCD mice treated for 4 weeks; conditions: for % Retics / Abs Retics / HCT / HGB / MCH / MCHC / MCV / RBC: 4 weeks
Description: (§1) Compound 46, a hepcidin mimetic, was administered subcutaneously at 1.0 mg/kg (group 3, N=9) or 2.5 mg/kg (group 4, N=9) in Townes SCD mice. 36 Townes SCD and 6 129S1/SvlmJ (wild-type), female mice, 5 weeks old upon delivery. A control group of wild-type mice (groups 1, N=6) was treated with vehicle as well as another SCD mice (group 2, N=9). All mice were dosed three times per week (TIW). All mice were maintained on an iron-adjusted diet (TD.140258, 35 ppm iron) throughout the study. Collections and necropsies were performed 24 hours post-last dose of compound or vehicle. After 4 weeks on study, animals from each group were euthanized, EDTA whole blood collected for CBC and serum was collected for hemolysis biomarker analysis. Spleens and livers were weighed at terminus. Liver, spleen, kidney, heart and brain were collected for future analysis. Serum and urine were collected to analyze chemistry markers, such as bilirubin, LDH (lactate dehydrogenase), haptoglobin, urine creatinine, urine total protein and urine urea nitrogen.
As shown in FIG. 4A and FIG. 4B, reticulocytes were counted both with the automated analyzer as well as manually from a new methylene blue stained blood smear by counting the number of positive stained cells encountered in 500 erythrocytes and calculating the percentage.

Townes SCD mice [2] = assay: Serum RBC hemolysis biomarkers (total bilirubin, LDH) in Townes SCD mice treated for 4 weeks; conditions: for LDH / Total bilirubin: serum, 4 weeks
Description: as §1
Serum total bilirubin and serum lactate dehydrogenase are hemolysis biomarkers.

Townes SCD mice [3] = assay: Spleen and liver weights and organ to body weight ratios at terminus in Townes SCD mice
Description: as §1, with “Compound 46, a hepcidin mimetic, was administered subcutaneously at 1.0 mg/kg (group 3, N=9) or 2.5 mg/kg (group 4, N=9) in Townes SCD mice.” left out

[4] = Dose 1 (mg/kg subcutaneously TIW)
[5] = Dose 2.5 (mg/kg subcutaneously TIW)

SMILES: CCCCCCCCCCCCCCCC(=O)N[C@@H](CCC(=O)NCCCC[C@@H]1NC(=O)[C@H]([C@@H](C)CC)NC(=O)[C@@H](NC(=O)[C@@H]2CCCN2C(=O)[C@H](Cc2ccccc2)NC(=O)[C@H](Cc2cnc[nH]2)NC(=O)[C@@H](NC(=O)[C@H](CCC(=O)O)NC(=O)CC(C)C)[C@@H](C)O)CSSC[C@@H](C(=O)N[C@@H](CCCCN)C(N)=O)NC(=O)CNC(=O)[C@H](CCCCN)NC(=O)[C@H](CO)NC(=O)[C@H](CCCNC(=N)N)NC(=O)[C@@H]2CCCN2C(=O)[C@H](CCC(=O)O)NC(=O)[C@H](Cc2ccccc2)NC1=O)C(=O)O [Compound 46, Isovaleric_Acid-ETHFPCI(K(IsoGlu_Palm))FEPRSKGCK-NH2] (HELM PEPTIDE1{[CC(C)CC(=O)[*:2]].E.T.H.F.P.C.I.K.F.E.P.R.S.K.G.C.K.[am]}|PEPTIDE2{[CCCCCCCCCCCCCCCC(=O)[*:2]].[gGlu]}$PEPTIDE1,PEPTIDE2,9:R3-2:R2|PEPTIDE1,PEPTIDE1,7:R3-17:R3$$$V2.0)
- RBC count (Townes SCD mice [1]; 2.5 mg/kg dose, result in words, FIG. 3A): significantly reduced
- Percent of reticulocytes compared to vehicle control (Townes SCD mice [1]; 2.5 mg/kg dose, result in words, FIG. 4B): decreased percent of reticulocytes significantly
- Mean corpuscular hemoglobin concentration (MCHC) compared to vehicle control (Townes SCD mice [1]; 2.5 mg/kg, result in words, FIG. 6B): significant increase in MCHC
- % Retics (Townes SCD mice [1]; [4]): 65.78 ± 12.23%
- Abs Retics (Townes SCD mice [1]; [4]): 2612 ± 627.9 K/uL
- HCT (Townes SCD mice [1]; [4]): 29.62 ± 3.45 %
- HGB (Townes SCD mice [1]; [4]): 5.89 ± 0.93 g/dL
- MCH (Townes SCD mice [1]; [4]): 9.89 ± 0.45 pg
- MCHC (Townes SCD mice [1]; [4]): 19.82 ± 1.65 g/dL
- MCV (Townes SCD mice [1]; [4]): 50.11 ± 3.41 fL
- RBC (Townes SCD mice [1]; [4]): 5.94 ± 0.78 M/uL
- % Retics (Townes SCD mice [1]; [5]): 50.33 ± 6.73 %
- Abs Retics (Townes SCD mice [1]; [5]): 1195 ± 246.5 K/uL
- HCT (Townes SCD mice [1]; [5]): 16.27 ± 7.23 %
- HGB (Townes SCD mice [1]; [5]): 4.39 ± 0.36 g/dL
- MCH (Townes SCD mice [1]; [5]): 9.82 ± 0.63 pg
- MCHC (Townes SCD mice [1]; [5]): 23.22 ± 3.10 g/dL
- MCV (Townes SCD mice [1]; [5]): 42.56 ± 3.81 fL
- RBC (Townes SCD mice [1]; [5]): 4.49 ± 0.55 M/uL
- Hgb level (Townes SCD mice [1]; result in words, FIG. 3B): significantly reduced in all three dose groups
- Hematocrit (HCT) (Townes SCD mice [1]; result in words, FIG. 5A): significant reduction of HCT in a dose dependent manner
- Mean corpuscular volume (MCV) compared to the vehicle group (Townes SCD mice [1]; result in words, FIG. 5B): significant reduction of MCV in a dose dependent manner
- Mean corpuscular hemoglobin (MCH) compared to vehicle control (Townes SCD mice [1]; result in words, FIG. 6A): significant reduction in MCH
- White blood cell (WBC) count (Townes SCD mice [1]; result in words, FIG. 7A): significant WBC and lymphocyte reduction in a dose dependent manner; also recorded: alleviated elevated white blood cell (WBC) and lymphocytes counts
- Lymphocyte count (Townes SCD mice [1]; result in words, FIG. 7B): significant WBC and lymphocyte reduction in a dose dependent manner; also recorded: alleviated elevated white blood cell (WBC) and lymphocytes counts
- Neutrophil count (Townes SCD mice [1]; result in words, FIG. 8A): significantly decreased neutrophil count in a dose dependent manner; also recorded: alleviated elevated neutrophil and monocyte counts
- Monocyte count (Townes SCD mice [1]; result in words, FIG. 8B): alleviated elevated neutrophil and monocyte counts
- Serum total bilirubin (Townes SCD mice [2]; result in words, FIG. 9A): significantly reduced both parameters in a dose dependent manner
- Serum lactate dehydrogenase (LDH) (Townes SCD mice [2]; result in words, FIG. 9B): significantly reduced both parameters in a dose dependent manner
- LDH (Townes SCD mice [2]; [4]): 610.6 ± 341.0 U/L
- Total bilirubin (Townes SCD mice [2]; [4]): 2.16 ± 0.34 mg/dL
- LDH (Townes SCD mice [2]; [5]): 372.3 ± 70.96 U/L
- Total bilirubin (Townes SCD mice [2]; [5]): 1.13 ± 0.37 mg/dL
- Liver Weight (Townes SCD mice [3]; SCD mice, Dose 1): 1.290 g
- Liver:BW Ratio (Townes SCD mice [3]; SCD mice, Dose 1): 0.0633 g/g
- Spleen Weight (Townes SCD mice [3]; SCD mice, Dose 1): 1.035 g
- Spleen:BW Ratio (Townes SCD mice [3]; SCD mice, Dose 1): 0.0508 g/g
- Liver Weight (Townes SCD mice [3]; SCD mice, Dose 2.5): 1.138 g
- Liver:BW Ratio (Townes SCD mice [3]; SCD mice, Dose 2.5): 0.0573 g/g
- Spleen Weight (Townes SCD mice [3]; SCD mice, Dose 2.5): 0.725 g
- Spleen:BW Ratio (Townes SCD mice [3]; SCD mice, Dose 2.5): 0.0365 g/g
- Liver Weight (Townes SCD mice [3]; SCD mice, Dose 7.5): 0.758 g
- Liver:BW Ratio (Townes SCD mice [3]; SCD mice, Dose 7.5): 0.0549 g/g
- Spleen Weight (Townes SCD mice [3]; SCD mice, Dose 7.5): 0.301 g
- Spleen:BW Ratio (Townes SCD mice [3]; SCD mice, Dose 7.5): 0.0217 g/g
- Spleen weights compared to vehicle (Townes SCD mice [3]; SCD mice, result in words, FIG. 1A): significantly and dose-dependently lower
- Spleen to body weight ratios compared to vehicle (Townes SCD mice [3]; SCD mice, result in words, FIG. 1B): significantly and dose-dependently lower
- Liver weight compared to vehicle treated SCD mice (Townes SCD mice [3]; SCD mice, result in words, FIG. 2A): significantly lower in a dose dependent manner
- Liver to body weight ratios compared to vehicle treated SCD mice (Townes SCD mice [3]; SCD mice, result in words, FIG. 2B): significantly lower in a dose dependent manner
- Spleen size (Townes SCD mice [3]; Townes SCD mice, figure legend FIG. 1A/1B): reduces spleen size
- Liver size (Townes SCD mice [3]; Townes SCD mice, figure legend FIG. 2A/2B): reduces liver size
